4 molecules from paper PMC7774954, “Interactomic affinity profiling by holdup assay: Acetylation and distal residues impact the PDZome-binding specificity of PTEN phosphatase” (PLoS ONE, 2020) can be followed below.

The structures appear in SMILES notation. *1 amine or outer side, *2 acyl side, *3 side chain or, on linkers, in order; H or OH if unused. Where a SMILES comes first, the peptide text is derived from it. The star is where a group is joined. X1 = O=C(CCCC[C@@H]1SC[C@@H]2NC(=O)N[C@@H]21)NCCCOCCOCCOCCCN*; Suc = O=C(CCC(=O)[*:2])[*:1]

The test system of one experiment is LNX2-1. The experiment in a line: Holdup assay, LNX2-1. Format: binding, human.
For another experiment, the system named is DLG3-3. Put plainly: Holdup assay, DLG3-3. Format: binding, human.
In a further experiment the target is T1, MAGI3-5 (Homo sapiens, UniProt Q5TCQ9).
T1 sequence (Q5TCQ9 1-1481): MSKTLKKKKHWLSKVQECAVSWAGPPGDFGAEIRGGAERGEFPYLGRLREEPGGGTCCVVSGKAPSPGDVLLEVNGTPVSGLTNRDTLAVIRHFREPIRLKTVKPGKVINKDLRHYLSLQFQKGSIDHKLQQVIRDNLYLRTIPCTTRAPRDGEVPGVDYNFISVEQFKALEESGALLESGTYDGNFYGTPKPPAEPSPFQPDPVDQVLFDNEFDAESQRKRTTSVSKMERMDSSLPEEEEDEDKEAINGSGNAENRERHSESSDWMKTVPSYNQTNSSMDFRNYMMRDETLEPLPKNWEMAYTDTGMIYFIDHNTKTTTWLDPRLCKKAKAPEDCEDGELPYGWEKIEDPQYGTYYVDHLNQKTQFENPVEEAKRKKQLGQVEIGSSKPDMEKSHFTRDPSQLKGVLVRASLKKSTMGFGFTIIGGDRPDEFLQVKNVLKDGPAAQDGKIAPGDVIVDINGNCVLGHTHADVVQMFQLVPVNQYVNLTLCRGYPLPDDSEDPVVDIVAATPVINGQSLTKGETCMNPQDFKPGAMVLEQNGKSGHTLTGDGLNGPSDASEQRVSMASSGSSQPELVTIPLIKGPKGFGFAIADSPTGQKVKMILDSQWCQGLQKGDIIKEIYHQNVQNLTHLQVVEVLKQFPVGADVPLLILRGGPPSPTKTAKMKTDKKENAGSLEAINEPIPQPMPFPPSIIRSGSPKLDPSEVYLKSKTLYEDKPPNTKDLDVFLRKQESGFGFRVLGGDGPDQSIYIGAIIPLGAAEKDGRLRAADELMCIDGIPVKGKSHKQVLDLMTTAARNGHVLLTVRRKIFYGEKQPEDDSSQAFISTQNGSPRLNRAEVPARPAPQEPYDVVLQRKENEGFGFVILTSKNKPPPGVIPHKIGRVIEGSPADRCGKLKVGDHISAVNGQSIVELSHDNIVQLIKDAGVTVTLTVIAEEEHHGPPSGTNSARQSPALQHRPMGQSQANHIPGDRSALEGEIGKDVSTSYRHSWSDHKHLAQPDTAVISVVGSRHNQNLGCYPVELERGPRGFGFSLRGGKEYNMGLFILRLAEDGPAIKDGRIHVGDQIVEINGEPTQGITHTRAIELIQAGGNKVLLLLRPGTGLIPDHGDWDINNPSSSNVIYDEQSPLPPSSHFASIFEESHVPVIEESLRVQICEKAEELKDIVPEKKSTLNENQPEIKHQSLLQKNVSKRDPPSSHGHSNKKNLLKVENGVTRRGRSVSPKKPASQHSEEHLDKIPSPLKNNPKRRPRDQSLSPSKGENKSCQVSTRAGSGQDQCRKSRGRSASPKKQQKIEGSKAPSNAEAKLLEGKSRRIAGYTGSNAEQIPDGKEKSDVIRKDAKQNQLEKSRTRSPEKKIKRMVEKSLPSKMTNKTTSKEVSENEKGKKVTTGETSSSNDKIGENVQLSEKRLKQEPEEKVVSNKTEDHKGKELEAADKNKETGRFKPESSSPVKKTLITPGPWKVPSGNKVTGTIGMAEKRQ
The experiment in a line: Holdup assay, MAGI3-5. Format: binding.

A further experiment has as its target T2, MAST3 PDZ 1 (Homo sapiens, UniProt O60307).
T2 construct: made in house; host or cells: E. coli
T2 sequence (O60307 950-1038 limits assumed): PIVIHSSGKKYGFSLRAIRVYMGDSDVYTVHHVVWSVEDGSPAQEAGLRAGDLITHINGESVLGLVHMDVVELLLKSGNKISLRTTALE
The experiment in a line: Holdup assay, MAST3-1. To be noted: for BI: MAST3-1. Format: binding. On the procedure:
(§1) The holdup assay was performed on a Tecan freedom Evo200 robot with 384-well plates in singlicate for the three 11-mer PTEN variants and the 13-mer PTEN peptide as described in [31, 32]. Briefly, prior to interaction assay, 2.5 μL of streptavidin resin was saturated in each well with 20 μL of biotinylated PBM peptides (42 μM) and then washed twice with an excess of free biotin, while the reference resin was incubated only with biotin. Right before the holdup experiment, the PDZ library was spiked with an internal standard of lysozyme. Then, the biotin- or PBM-saturated resin was incubated, each in a distinct well of a 384-well plate, with complete cell lysates diluted so that the concentration of the tag-PDZ present in the crude extract is adjusted at 4 μM. After a sufficient time to reach complex equilibrium (15 min.), a fast and mild filtration step is performed and the tag-PDZ concentrations were measured by capillary electrophoresis instrument (LabChip GXII, PerkinElmer, Massachusets, USA). Standard markers were used to convert migration time into molecular weight on the LabChip software and inappropriate molecular weight markers were corrected or excluded.
(§2) For filtered data, the BI was extracted with the following equation (Eq 1) that estimates the depleted fraction after superimposition of the sample and reference electropherograms: BI=Iref−Ilig/Iref (1) where Iref and Ilig are the intensities of the tag-PDZ peaks measured, for each PDZ domain/PBM peptide interaction pair, in the biotin reference and the PBM electropherograms, respectively.
(§3) BIs were transformed into dissociation constants (KD) using the following formula: KD=([PDZtot]−BI·[PDZtot])·([PBMtot]−BI·[PDZtot])/BI·[PDZtot] (2) where [PDZtot] and [PBMtot] correspond to the total concentrations of the PDZ domain (usually around 4 μM) and the PBM peptide used during the assay. Since the PBMtot concentration in the resin during the holdup assay parameter may differ from one peptide to another and remains unknown, it is impossible to directly convert BI values into KD constants. We systematically determined the KD constants for a subset of PDZ/PBM pairs by competitive FP. […] For each PBM, the average peptide concentration was calculated after outlier rejection based on the absolute distances from the median as compared to three times the standard deviation (3σ rule), with never more than 2 values rejected.

A further experiment deals with T3, MAGI1 PDZ 3 (Homo sapiens, UniProt Q96QZ7).
T3 construct: made in house; host or cells: E. coli
T3 sequence (Q96QZ7 643-721 limits assumed): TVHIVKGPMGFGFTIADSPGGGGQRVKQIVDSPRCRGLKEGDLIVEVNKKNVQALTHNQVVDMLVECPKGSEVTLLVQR
The experiment in a line: Holdup assay, MAGI1-3. Format: binding. To be noted: for BI: MAGI1-3. On the procedure: as §1, §2, §3

Another experiment deals with MAGIX-1. Put plainly: Holdup assay, MAGIX-1. Format: binding, human.
Another experiment concerns the target T4, LNX1-2 (Homo sapiens, UniProt Q8TBB1).
T4 sequence (Q8TBB1 385-467): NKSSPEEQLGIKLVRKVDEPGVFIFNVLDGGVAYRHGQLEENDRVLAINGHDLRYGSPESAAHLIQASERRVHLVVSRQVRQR
The experiment in a line: Holdup assay, LNX1-2. Format: binding.

In general, Kd refers to a measure of binding affinity in units of concentration. Low readings indicate tighter binding, high ones weaker binding.

On to `CC[C@H](C)[C@H](NC(=O)[C@H](CCC(N)=O)NC(=O)[C@@H](NC(=O)[C@H](Cc1c[nH]cn1)NC(=O)[C@H](CCC(N)=O)NC(=O)[C@H](CC(=O)O)NC(=O)[C@H](CCC(=O)O)NC(=O)[C@H](CC(=O)O)NC(=O)CCC(=O)NCCCOCCOCCOCCCNC(=O)CCCC[C@@H]1SC[C@@H]2NC(=O)N[C@@H]21)[C@@H](C)O)C(=O)N[C@H](C(=O)N[C@@H](CCCCN)C(=O)N[C@H](C(=O)O)C(C)C)[C@@H](C)O` [PTEN_11], for which the BI is given as 0.094 in the experiment with LNX2-1; -0.011 in the experiment on DLG3-3; 0.097 at MAGI3-5; 0.122 on MAST3 PDZ 1; 0.519 at MAGI1 PDZ 3; 0.014 in the experiment with MAGIX-1. This molecule also showed a BI on LNX1-2 of 0.105. The LogKD in the experiment on LNX2-1, in the experiment on DLG3-3, on MAGI3-5 and in the experiment on MAGIX-1 was 3.519 in each case. The affinity on MAGI1 PDZ 3, expressed as Kd, was 29.6 µM.
Regarding `CC[C@H](C)[C@H](NC(=O)[C@H](CCC(N)=O)NC(=O)[C@@H](NC(=O)[C@H](Cc1c[nH]cn1)NC(=O)[C@H](CCC(N)=O)NC(=O)[C@H](CC(=O)O)NC(=O)[C@H](CCC(=O)O)NC(=O)[C@H](CC(=O)O)NC(=O)[C@H](Cc1ccccc1)NC(=O)[C@@H]1CCCN1C(=O)CCC(=O)NCCCOCCOCCOCCCNC(=O)CCCC[C@@H]1SC[C@@H]2NC(=O)N[C@@H]21)[C@@H](C)O)C(=O)N[C@H](C(=O)N[C@@H](CCCCN)C(=O)N[C@H](C(=O)O)C(C)C)[C@@H](C)O` [PTEN_13] ({X1-Suc}-PFDEDQHTQITKV-OH), the BI with LNX2-1 is given as -0.046; in the experiment with DLG3-3 it was -0.054; at MAGI3-5, […]; at MAST3 PDZ 1 it was -0.161; on MAGI1 PDZ 3 it was 0.584; in the experiment on MAGIX-1 it was 0.049. Further, at LNX1-2, the BI is on record as 0.44. In addition, on MAGI3-5, the LogKD is recorded as […]. For the same molecule, the values for the Kd on MAGI1 PDZ 3 and at LNX1-2 were 10.4 µM and 19.4 µM, respectively.
For the molecule `CC[C@H](C)[C@H](NC(=O)[C@H](CCC(N)=O)NC(=O)[C@@H](NC(=O)[C@H](Cc1c[nH]cn1)NC(=O)[C@H](CCC(N)=O)NC(=O)[C@H](CC(=O)O)NC(=O)[C@H](CCC(=O)O)NC(=O)[C@H](CC(=O)O)NC(=O)CCC(=O)NCCCOCCOCCOCCCNC(=O)CCCC[C@@H]1SC[C@@H]2NC(=O)N[C@@H]21)[C@@H](C)O)C(=O)N[C@H](C(=O)N[C@@H](CCCCNC(C)=O)C(=O)N[C@H](C(=O)O)C(C)C)[C@@H](C)O` [PTEN_Ac], the BI was 0 in the experiment with LNX2-1; -0.04 with DLG3-3; 0.21 on MAGI3-5; 0.242 on MAST3 PDZ 1; 0.715 at MAGI1 PDZ 3; -0.034 in the experiment with MAGIX-1. Moreover, the BI on LNX1-2 was 0.164. Further, the LogKD with LNX2-1, in the experiment on DLG3-3 and with MAGIX-1 was 3.605 in each case. Also, the Kd is 102 µM at MAGI3-5, 84.7 µM on MAST3 PDZ 1 and 10 µM on MAGI1 PDZ 3.
On to `CC[C@H](C)[C@H](NC(=O)[C@H](CCC(N)=O)NC(=O)[C@@H](NC(=O)[C@H](Cc1c[nH]cn1)NC(=O)[C@H](CCC(N)=O)NC(=O)[C@H](CC(=O)O)NC(=O)[C@H](CCC(=O)O)NC(=O)[C@H](CC(=O)O)NC(=O)CCC(=O)NCCCOCCOCCOCCCNC(=O)CCCC[C@@H]1SC[C@@H]2NC(=O)N[C@@H]21)[C@@H](C)O)C(=O)N[C@H](C(=O)N[C@@H](CCCNC(=N)N)C(=O)N[C@H](C(=O)O)C(C)C)[C@@H](C)O` [PTEN_KR] ({X1-Suc}-DEDQHTQITRV-OH), for which the BI in the experiment with LNX2-1 is listed as 0.072; in the experiment with DLG3-3, 0.067; at MAGI3-5 it was 0.165; at MAST3 PDZ 1, 0.228; at MAGI1 PDZ 3, 0.605; with MAGIX-1 it was 0.018. The LogKD with LNX2-1, with DLG3-3 and with MAGIX-1 was 3.655 in each case. Moreover, the Kd at MAST3 PDZ 1 is 81.6 µM; at MAGI1 PDZ 3, 14.7 µM.
